Laboratory results published in patent US20260182575A1, “MOLECULES HAVING PESTICIDAL UTILITY AND INTERMEDIATES AND PROCESSES RELATED THERETO” (CORTEVA AGRISCIENCE LLC, priority 2022, published 2026).
Several values for one entry are separate records, joined by “and”; a condition that tells them apart may be missing. Identical values can stand only once.

What follows are compounds tested on Fall Armyworm (Spodoptera frugiperda, LAPHFR, FAW) (assay: Bioassay 4: fall armyworm, artificial diet, 128-cell tray). Settings: AI alone, 0.000004 wt %.
Format: in vivo
Procedure, shortened: (§1)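 Test solutions (0.0000004–0.04% w/v, i.e. 0.00005–5 μg/cm² on diet) were pipetted onto artificial lepidopteran diet and one 2nd-instar larva was placed per cell, 8 replicates per species, held at ~26° C. Live larvae were counted after 5 days; percent control used Abbott's correction against a solvent check.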

Compound	Average % Control AI [%]
Cc1c(COC(=O)[C@@H]2[C@H](/C=C(\Cl)C(F)(F)F)C2(C)C)cccc1-c1ccccc1 (racemic) [Bifenthrin]	12.5
C[C@]1(COC(=O)C2CC2)[C@@H]2C[C@H](O)[C@@]3(C)Oc4cc(-c5cccnc5)oc(=O)c4[C@H](O)[C@@H]3[C@@]2(C)CC[C@@H]1OC(=O)C1CC1 [Afidopyropen]	0.0
CON=CNC(=O)c1ccc(C2=NOC(c3cc(Cl)cc(Cl)c3)(C(F)(F)F)C2)cc1C (stereo not drawn) [Fluxametamide]	12.5
COC(=O)N(C(=O)N1CO[C@@]2(C(=O)OC)Cc3cc(Cl)ccc3C2=N1)c1ccc(OC(F)(F)F)cc1 [Indoxacarb]	0.0
CC1=NNC(=O)N(/N=C/c2cccnc2)C1 [Pymetrozine]	0.0
CN1COCN(Cc2cnc(Cl)s2)/C1=N\[N+](=O)[O-] [Thiamethoxam]	0.0
Chlorfenapyr	0.0

Same assay, conditions: AI alone, 0.00004 wt %

Compound	Average % Control AI [%]
Cc1c(COC(=O)[C@@H]2[C@H](/C=C(\Cl)C(F)(F)F)C2(C)C)cccc1-c1ccccc1 (racemic) [Bifenthrin]	12.5
C[C@]1(COC(=O)C2CC2)[C@@H]2C[C@H](O)[C@@]3(C)Oc4cc(-c5cccnc5)oc(=O)c4[C@H](O)[C@@H]3[C@@]2(C)CC[C@@H]1OC(=O)C1CC1 [Afidopyropen]	0.0
COC(=O)N(C(=O)N1CO[C@@]2(C(=O)OC)Cc3cc(Cl)ccc3C2=N1)c1ccc(OC(F)(F)F)cc1 [Indoxacarb]	0.0
CC1=NNC(=O)N(/N=C/c2cccnc2)C1 [Pymetrozine]	0.0
Chlorfenapyr	37.5

What follows are compounds tested on Green Peach Aphid (Myzus persicae, MYZUPE, GPA) (assay: Bioassay 1: green peach aphid, cabbage seedling foliar spray). Settings: AI alone at the rate of Wt Ratio F1:AI 1:640 (F1 0.04), 3 days.
Format: in vivo
Experimental: Bioassay 1: Green Peach Aphid (Myzus persicae, MYZUPE, “GPA”).
Stock solutions of F1 and various active ingredients were prepared initially at a concentration of 4 milligrams per milliliter (mg/mL) for F1 and 0.1 mg/mL for the active ingredients, respectively, using a 1:1 mixture of acetone:methanol as a diluent. Stock solutions were prepared with F1 as well as for each of the active ingredients individually. Test solutions were prepared from the stock solutions. Test solutions were prepared containing F1, the individual active ingredients, and mixtures of F1 with each of the active ingredients. The test solutions for F1 and the individual active ingredients were prepared by adding 750 microliters (μL) of stock solution to a 25 mL glass vial, then adding 750 μL of 1:1 acetone:methanol solvent, followed by the addition of 13.5 mL water with 0.025% Tween® 20 to create a 0.0005% (weight/volume (w/v)) solution. The test solutions containing mixtures of F1, and the individual active ingredients were prepared by adding 750 μL of the active ingredient stock solution to a 25 mL glass vial, followed by 750 μL of the F1 stock solution, then by the addition of 13.5 mL water with 0.025% Tween® 20 to create a test solution containing 0.0005% (w/v) F1 and 0.0005% (w/v) of the active ingredient. Each test solution was serially diluted to create desired doses of test solutions (0.0005% (w/v), 0.000125% (w/v), 0.00003125% (w/v), 0.0000078% (w/v), 0.00000195% (w/v), and 0.0000005% (w/v)). In test solutions containing mixtures of F1 and the active ingredients, the active ingredients were diluted as described above, but the concentration of F1 was held constant (0.04% (w/v)).
The test solutions were tested against GPA using the following procedure: cabbage seedlings, grown in 3-inch pots with 2-3 small (3-5 centimeter (cm)) true leaves, were used as test substrate. The seedlings were infested with 20-50 GPA (wingless adult and nymph stages) one day prior to chemical application. Four pots with individual seedlings were used for each treatment. A hand-held aspirator-type sprayer was used for spraying a solution to both sides of […] leaves until runoff. Reference plants (solvent check) were sprayed with the diluent only (0.025% Tween® 20 and 10% acetone:methanol (1:1) in water). Treated plants were held in a holding room for three days at approximately 25° C. and ambient relative humidity (RH about 20% to about 45%) prior to grading. Evaluation was conducted by counting the number of live aphids per plant under a microscope three days after treatment. Percent control was measured using Abbott's correction formula (W. S. Abbott, J. Econ. Entomol. 18 (1925), pp. 265-267) as follows:
where X=No. of live aphids on solvent check plants and Y=No. of live aphids on treated plants. In Table B1 the “Expected % Control” was calculated using the method described in Colby S. R., Weeds, 1967, 15, 20-22. Bioassay 2: Sweet Potato Whitefly (Bemisia tabaci, BEMITA, “SPW”).

Compound	Average % Control AI [%]
COC(=O)N(C(=O)N1CO[C@@]2(C(=O)OC)Cc3cc(Cl)ccc3C2=N1)c1ccc(OC(F)(F)F)cc1 [Indoxacarb]	10.1
CC1=NNC(=O)N(/N=C/c2cccnc2)C1 [Pymetrozine]	47.6

Same assay, conditions: AI alone at the rate of Wt Ratio F1:AI 1:2564 (F1 0.04), 3 days

Compound	Average % Control AI [%]
CON=CNC(=O)c1ccc(C2=NOC(c3cc(Cl)cc(Cl)c3)(C(F)(F)F)C2)cc1C (stereo not drawn) [Fluxametamide]	23.1
Chlorfenapyr	10.1

Same assay, conditions: AI alone at the rate of Wt Ratio F1:AI 1:10256 (F1 0.04), 3 days

Compound	Average % Control AI [%]
CN1COCN(Cc2cnc(Cl)s2)/C1=N\[N+](=O)[O-] [Thiamethoxam]	8.5

Same assay, conditions: AI alone at the rate of Wt Ratio F1:AI 1:40000 (F1 0.04), 3 days

Compound	Average % Control AI [%]
Cc1c(COC(=O)[C@@H]2[C@H](/C=C(\Cl)C(F)(F)F)C2(C)C)cccc1-c1ccccc1 (racemic) [Bifenthrin]	16.3
COC(=O)N(C(=O)N1CO[C@@]2(C(=O)OC)Cc3cc(Cl)ccc3C2=N1)c1ccc(OC(F)(F)F)cc1 [Indoxacarb]	0.0
CC1=NNC(=O)N(/N=C/c2cccnc2)C1 [Pymetrozine]	15.4
CN1COCN(Cc2cnc(Cl)s2)/C1=N\[N+](=O)[O-] [Thiamethoxam]	0.0

Same assay, conditions: F1 alone, Wt % 0.04 (10^-6), cabbage spray, 3 days after treatment

Compound	Average % Control F1
Cc1ccc(COCC(F)(F)F)c(N2C(=O)CS/C2=N\C(=O)Nc2ccc(-c3ncn(-c4ccc(OC(F)(F)F)cc4)n3)cc2F)c1 [F1]	8.8% and 7.1% and 15.8%

The compounds below were run on Corn Earworm (Helicoverpa zea, HELIZE, CEW) (assay: Bioassay 4: corn earworm, artificial diet, 128-cell tray). Settings: AI alone, 0.000004 wt %.
Format: in vivo
Procedure, shortened: as §1

Compound	Average % Control AI [%]
Cc1c(COC(=O)[C@@H]2[C@H](/C=C(\Cl)C(F)(F)F)C2(C)C)cccc1-c1ccccc1 (racemic) [Bifenthrin]	0.0
C[C@]1(COC(=O)C2CC2)[C@@H]2C[C@H](O)[C@@]3(C)Oc4cc(-c5cccnc5)oc(=O)c4[C@H](O)[C@@H]3[C@@]2(C)CC[C@@H]1OC(=O)C1CC1 [Afidopyropen]	0.0
CON=CNC(=O)c1ccc(C2=NOC(c3cc(Cl)cc(Cl)c3)(C(F)(F)F)C2)cc1C (stereo not drawn) [Fluxametamide]	0.0
COC(=O)N(C(=O)N1CO[C@@]2(C(=O)OC)Cc3cc(Cl)ccc3C2=N1)c1ccc(OC(F)(F)F)cc1 [Indoxacarb]	0.0
CC1=NNC(=O)N(/N=C/c2cccnc2)C1 [Pymetrozine]	0.0
CN1COCN(Cc2cnc(Cl)s2)/C1=N\[N+](=O)[O-] [Thiamethoxam]	0.0
Chlorfenapyr	0.0

Same assay, conditions: AI alone, 0.00004 wt %

Compound	Average % Control AI [%]
Cc1c(COC(=O)[C@@H]2[C@H](/C=C(\Cl)C(F)(F)F)C2(C)C)cccc1-c1ccccc1 (racemic) [Bifenthrin]	0.0
C[C@]1(COC(=O)C2CC2)[C@@H]2C[C@H](O)[C@@]3(C)Oc4cc(-c5cccnc5)oc(=O)c4[C@H](O)[C@@H]3[C@@]2(C)CC[C@@H]1OC(=O)C1CC1 [Afidopyropen]	0.0
CON=CNC(=O)c1ccc(C2=NOC(c3cc(Cl)cc(Cl)c3)(C(F)(F)F)C2)cc1C (stereo not drawn) [Fluxametamide]	0.0
COC(=O)N(C(=O)N1CO[C@@]2(C(=O)OC)Cc3cc(Cl)ccc3C2=N1)c1ccc(OC(F)(F)F)cc1 [Indoxacarb]	0.0
CC1=NNC(=O)N(/N=C/c2cccnc2)C1 [Pymetrozine]	0.0
CN1COCN(Cc2cnc(Cl)s2)/C1=N\[N+](=O)[O-] [Thiamethoxam]	0.0
Chlorfenapyr	12.5

Same assay, conditions: AI alone, 0.0004 wt %

Compound	Average % Control AI [%]
COC(=O)N(C(=O)N1CO[C@@]2(C(=O)OC)Cc3cc(Cl)ccc3C2=N1)c1ccc(OC(F)(F)F)cc1 [Indoxacarb]	0.0

Same assay, conditions: F1 alone, 0.0000004 wt %

Compound	Average % Control F1 [%]
Cc1ccc(COCC(F)(F)F)c(N2C(=O)CS/C2=N\C(=O)Nc2ccc(-c3ncn(-c4ccc(OC(F)(F)F)cc4)n3)cc2F)c1 [F1]	0.0

Same assay, conditions: F1 alone, 0.00004 wt %

Compound	Average % Control F1 [%]
Cc1ccc(COCC(F)(F)F)c(N2C(=O)CS/C2=N\C(=O)Nc2ccc(-c3ncn(-c4ccc(OC(F)(F)F)cc4)n3)cc2F)c1 [F1]	75.0
